The values that follow come from paper PMC11267282, “Ultrashort‐Peptide‐Responsive Gene Switches for Regulation of Therapeutic Protein Expression in Mammalian Cells” (Advanced Science, 2024).

Where a SMILES comes first, the peptide text is derived from it.

In one data set the test system is ComREXTRA in HEK-XIP cells. Nature of the data set: SEAP expression by monoclonal cell line HEK-XIP / monoclonal clones. The settings on record: peptides from human sequence BLAST (Supplementary Figure 14c,d), 24 h, n = 4. The class given is cell-based, Streptococcus vestibularis. How it is done: HEK‐293T or hMSC‐TERT cells were seeded in a 24‐well plate at a density of 5× 10^4 cells per well for 24 h. Then the cells were co‐transfected with 1000 ng of plasmid mixture containing pJH1611 (ITR‐OSTAT3‐SEAP‐P2A‐mINS‐pA:PRPBSA‐ECFP‐P2A‐PuroR‐pA‐ITR), pJH1618 (ITR‐PhCMV‐STAT3‐pA:PRPBSA‐ECFP‐P2A‐PuroR‐pA‐ITR), pJH1632 (ITR‐PSV40‐SP‐ComRK155R/F158Y/R186S/S222N/C17S‐EpoR‐IL‐6RB‐pA: PhCMV‐ZeoR‐P2A‐mRuby‐pA‐ITR) and the Sleeping Beauty transposase pJH42 (PhCMV‐SB100X‐pA)^[ [6], [44] ^] at the molar ratio of 2:10:50:6. After 24 h of transfection, the cells were transferred into the medium containing 0.5 µg ml^−1 puromycin, 5 µg ml^−1 blasticidin, and 100 µg ml^−1 of zeocin for antibiotic selection for three days. Then the polyclonal population of engineered cells was suspended in DMEM medium and separated by fluorescence‐activated cell sorting (FACS, BD FACS ARIA FUSION, BD Biosciences) using yPET (517/530), mRuby (558/605), and iRFP (690/713) fluorescence. The triple‐positive population was isolated into single cells and further cultured in 96‐well plates in medium containing the three selection antibiotics. After two weeks of clonal expansion, monoclonal cell lines were screened by the addition of XIP and the best‐in‐class cell line was selected for follow‐up experiments. Fluorescence‐based flow cytometry was performed to confirm triple‐positive fluorescence for the best‐in‐class cell line.
SEAP reporter levels in cell culture supernatants were quantified using a colorimetric assay. In brief, 20 µl of cell culture supernatant was mixed with 80 µl of PBS buffer (cat. no. 14190144, ThermoFisher) and heat‐inactivated at 65 °C for 30 min. Then 80 µl of 2x SEAP assay buffer (20 mM homoarginine, 1 mM MgCl2, 21% diethanolamine, pH 9.8) was mixed with 20 µl of substrate solution, and 100 µl of the buffer‐substrate mixture was added to 100 µl of the diluted heat‐inactivated sample. Absorbance at 405 nm was recorded using a plate reader (Tecan Spark, Tecan Group Ltd., Switzerland) for 30 min at 37 °C to determine the SEAP levels.
With “APFFYY [Align19_APFFYY, short peptide based on conserved human motif]”, the “SEAP level vs non-induced (significance)” value is given as “ns”.

Turning to “DPFFYY [Align18_DPFFYY, short peptide based on conserved human motif]”, the “SEAP level vs non-induced (significance)” value is on record as “ns”.

For the compound “LPFFMIL [Align10-13_LPFFMIL, short peptide based on conserved human motif]”, the “SEAP level vs non-induced (significance)” value is “ns”.

On to “PPFFYY [Align14/20_PPFFYY, short peptide based on conserved human motif]”, for which the “SEAP level vs non-induced (significance)” value is reported as “ns”.

For the compound “RAPKFMIY [Align14_RAPKFMIY, short peptide based on conserved human motif]”, the “SEAP level vs non-induced (significance)” value is “ns”.

As for “RPFFYY [Align10-12_RPFFYY, short peptide based on conserved human motif]”, the “SEAP level vs non-induced (significance)” value is reported as “ns”.

As to “RPFFYYYY [Align3-4_RPFFYYYY, short peptide based on conserved human motif]”, the “SEAP level vs non-induced (significance)” value was “ns”.

For the compound “RPFHFMIY [Align15-20_RPFHFMIY, short peptide based on conserved human motif]”, the “SEAP level vs non-induced (significance)” value was “ns”.

For “VPFFMIIC [Align1-9_VPFFMIIC, short peptide based on conserved human motif]”, the “SEAP level vs non-induced (significance)” value was “ns”.

Consider “VPFFYYYY [Align1-2_VPFFYYYY, short peptide based on conserved human motif]”, for which the “SEAP level vs non-induced (significance)” value is “ns”.

Regarding “VPFYYY [Align8-9/17_VPFYYY, short peptide based on conserved human motif]”, the “SEAP level vs non-induced (significance)” value is given as “ns”.

Turning to “VPFYYYY [Align5-7_VPFYYYY, short peptide based on conserved human motif]”, the “SEAP level vs non-induced (significance)” value is reported as “ns”.

Take “VPYFYY [Align16_VPYFYY, short peptide based on conserved human motif]”: the “SEAP level vs non-induced (significance)” value is recorded as “ns”.

For the compound “VPYFYYY [Align15_VPYFYYY, short peptide based on conserved human motif]”, the “SEAP level vs non-induced (significance)” value was “ns”.

Staying with this data set, now noted: specificity / orthogonality screening, 24 h, vs non-induced control.
With BAM8‐22 [reference compound], the “SEAP induction in HEK-XIP cells (result in words)” value (“SEAP induction in HEK-XIP cells” for short) was “none of them displayed inducing activity”.

Turning to C peptide [reference compound], the “SEAP induction in HEK-XIP cells” value is “none of them displayed inducing activity”.

For VPFFMYY [ID1], the “SEAP induction in HEK-XIP cells” value is given as “significant fold inductions”.

The next data set deals with engineered mammalian cells. Nature of the data set: Resazurin-based cell viability assay. Conditions: 50 and 250 µmol/L, 24 h, n = 4. The protocol:
Cells were incubated with resazurin (cat. no. R7017, Sigma‐Aldrich, USA) at a concentration of 50 µg ml^−1 for 2 h. Then fluorescence was assayed with a plate reader (Tecan Spark, Tecan Group Ltd., Switzerland) at excitation and emission wavelengths of 540 and 590 nm, respectively. The fluorescence intensity of non‐induced cells was set to 100%.
With `CC[C@H](C)[C@H](NC(=O)[C@H](CCSC)NC(=O)[C@H](Cc1ccccc1)NC(=O)[C@H](Cc1ccc(O)cc1)NC(=O)[C@@H]1CCCN1C(=O)[C@@H](N)C(C)C)C(=O)N[C@@H](Cc1ccc(O)cc1)C(=O)N[C@@H](Cc1ccc(O)cc1)C(=O)O` [RE10] (H-VPYFMIYY-OH), the HEK-XIP cell viability result is recorded as “ns”.

In the case of `CSCC[C@H](NC(=O)[C@H](Cc1ccccc1)NC(=O)[C@H](Cc1ccc(O)cc1)NC(=O)[C@@H]1CCCN1C(=O)[C@H](C)N)C(=O)NCC(=O)N[C@@H](Cc1ccc(O)cc1)C(=O)N[C@@H](Cc1ccc(O)cc1)C(=O)O` [RE12] (H-APYFMGYY-OH), the HEK-XIP cell viability result is reported as “ns”.

As for APYFMIYY [RE11], the HEK-XIP cell viability entry is listed as “ns”.
